Results reported in US20220370429A1, “AROMATIC HETEROCYCLIC COMPOUND HAVING TRICYCLIC STRUCTURE, AND PREPARATION METHOD THEREFOR AND APPLICATION THEREOF” (SHANGHAI LONGWOOD BIOPHARMACEUTICALS CO., LTD., priority 2019, published 2022).

These compounds were tested against T1, PD-1/PD-L1 (Homo sapiens, UniProt Q9NZQ7) (assay: PD-1/PD-L1 Homogeneous Time-Resolved Fluorescence (HTRF) Binding Assay). Details: 25° C., PBS pH 7.4, ~3 nM PD1, 10 nM PD-L1.
T1 construct: Recombinant human PD-L1 protein (19-238) with a His-tagged at the C-terminus; purchased AcroBiosystems PD1-H5229 (PD-L1); PD1-H5257 (PD-1)
T1 sequence (Q9NZQ7 19-238): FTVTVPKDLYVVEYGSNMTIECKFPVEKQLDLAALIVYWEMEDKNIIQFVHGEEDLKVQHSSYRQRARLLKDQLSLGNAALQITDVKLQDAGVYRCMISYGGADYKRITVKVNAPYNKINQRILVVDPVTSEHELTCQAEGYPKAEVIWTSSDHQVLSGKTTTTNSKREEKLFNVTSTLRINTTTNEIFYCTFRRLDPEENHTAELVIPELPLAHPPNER
Procedure: Example A: PD-1/PD-L1 Homogeneous Time-Resolved Fluorescence (HTRF) Binding Assay
Assays were performed in standard black 384-well polystyrene plates and a final volume was 20 μL. The inhibitor was first serially diluted with DMSO and added to the wells of the plate, followed by the addition of other reaction components. The final concentration of DMSO in the assay was 1%. Assays were performed at 25° C. in PBS buffer (pH 7.4) containing 0.05% Tween-20 and 0.1% BSA. Recombinant human PD-L1 protein (19-238) with a His-tagged at the C-terminus was purchased from AcroBiosystems (PD1-H5229). Recombinant human PD-1 protein (25-167) with an Fc tag at the C-terminus was also purchased from AcroBiosystems (PD1-H5257). The PD-L1 and PD-1 proteins were diluted in assay buffer and then […] of the solution was extracted and added to the wells of the plate. Plates were centrifuged and proteins and inhibitors were preincubated for 40 minutes. After incubation, 0.1 μl of HTRF detection buffer containing europium […] labeled anti-human IgG (PerkinElmer-AD0212), Fc-specific and anti-His SureLight®-Allophycocyanin (APC, PerkinElmer-AD0059H) conjugated antibodies was added. After centrifugation, the plates were incubated at 25° C. for 60 minutes. Data was read in a PHERAstar FS plate reader (665 nm/620 nm ratio). Final concentrations in the assay were ˜3 nM PD1, 10 nM PD-L1, 1 nM europium anti-human IgG, and 20 nM anti-His-allophycocyanin. Activity data were fitted using GraphPad Prism 5_0 software to derive IC50 values for inhibitors.

Structure (SMILES) | IC50 [nM]
COc1nc(O[C@H]2CCc3c(-c4cccc(-c5cc6cc7c(c(C#N)c6o5)CCC7N5CC[C@@H](C(=O)O)C5)c4C)cccc32)ccc1CN1CC[C@@H](O)C1 (stereo partly drawn) [Compound 001] | ≤ 10
COc1nc(O[C@H]2CCc3c(-c4cccc(-c5nc6cc7c(c(C#N)c6o5)CCC7N5CC[C@@H](C(=O)O)C5)c4C)cccc32)ccc1CN1CC[C@@H](O)C1 (stereo partly drawn) [Compound 003] | ≤ 10
COc1nc(O[C@H]2CCc3c(-c4cccc(-c5nc6cc7c(c(C#N)c6o5)CCC7N5CC[C@@H](C(=O)O)C5)c4Cl)cccc32)ccc1CN1CC[C@@H](O)C1 (stereo partly drawn) [Compound 004] | ≤ 10
COc1nc(O[C@H]2CCc3c(-c4cccc(-c5nc6cc7c(c(C#N)c6o5)CCC7N5CC[C@@H](C(=O)O)C5)c4Cl)cccc32)c(Cl)cc1CN1CC[C@@H](O)C1 (stereo partly drawn) [Compound 005] | ≤ 10
COc1nc(O[C@H]2CCc3c(-c4cccc(-c5nc6cc7c(c(C#N)c6o5)CC[C@H]7N5CC[C@@H](C(=O)O)C5)c4Cl)cccc32)c(Cl)cc1CN1CC[C@@H](O)C1 [Compound 006] | ≤ 10
COc1nc(O[C@H]2CCc3c(-c4cccc(-c5nc6cc7c(c(C#N)c6o5)CC[C@H]7N5CC[C@@H](C(=O)NS(=O)(=O)C6CC6)C5)c4C)cccc32)c(Cl)cc1CN1CC[C@@H](O)C1 [Compound 079] | ≤ 10
COc1nc(O[C@H]2CCc3c(-c4cccc(-c5cc6cc7c(c(C#N)c6o5)CC[C@H]7N5CC[C@@H](C(=O)NS(=O)(=O)C6CC6)C5)c4C)cccc32)c(Cl)cc1CN1CC[C@@H](O)C1 [Compound 080] | ≤ 10
COc1nc(O[C@H]2CCc3c(-c4cccc(-c5nc6cc7c(c(C#N)c6o5)CC[C@H]7N5CC[C@@H](C(=O)NS(=O)(=O)C6CC6)C5)c4Cl)cccc32)c(Cl)cc1CNC[C@H]1CCC(=O)N1 [Compound 081] | ≤ 10
COc1nc(O[C@H]2CCc3c(-c4cccc(-c5nc6cc7c(c(C#N)c6o5)CC[C@H]7N5CC[C@@H](C(=O)NS(=O)(=O)C6CC6)C5)c4Cl)cccc32)c(Cl)cc1CN1CC2(CCC(=O)N2)C1 [Compound 083] | ≤ 10
COc1nc(O[C@H]2CCc3c(-c4cccc(-c5nc6cc7c(c(C#N)c6o5)CC[C@H]7N5CC[C@@H](C(=O)O)C5)c4Cl)cccc32)c(C(F)F)cc1CN1CC[C@@H](O)C1 [Compound 086] | ≤ 10
COc1nc(O[C@H]2CCc3c(-c4cccc(-c5nc6cc7c(c(C#N)c6o5)CC[C@H]7N5CC[C@@H](C(=O)NS(=O)(=O)C6CC6)C5)c4C)cccc32)c(C(F)F)cc1CN1CC[C@@H](O)C1 [Compound 087] | ≤ 10
COc1nc(O[C@H]2CCc3c(-c4cccc(-c5nc6cc7c(c(C#N)c6o5)CC[C@H]7N5CC[C@@H](C(=O)NS(=O)(=O)C6CC6)C5)c4Cl)cccc32)c(C(F)F)cc1CN1CC[C@@H](O)C1 [Compound 088] | ≤ 10
COc1nc(O[C@H]2CCc3c(-c4cccc(-c5nc6cc7c(c(C#N)c6o5)CC[C@H]7N5CC[C@@H](C(=O)NS(=O)(=O)C6(C)CC6)C5)c4C)cccc32)c(Cl)cc1CN1CC2(CCC(=O)N2)C1 [Compound 090] | ≤ 10
COc1nc(O[C@H]2CCc3c(-c4cccc(-c5nc6cc7c(c(C#N)c6o5)CC[C@H]7N5CC[C@@H](C(=O)O)C5)c4C)cccc32)ccc1CN1CC[C@@H](O)C1 [Compound 091] | ≤ 10
COc1nc(O[C@H]2CCc3c(-c4cccc(-c5nc6cc7c(c(C#N)c6o5)CC[C@H]7N5CC[C@@H](C(=O)O)C5)c4Cl)cccc32)ccc1CN1CC[C@@H](O)C1 [Compound 092] | ≤ 10
COc1nc(O[C@H]2CCc3c(-c4cccc(-c5nc6cc7c(c(C#N)c6o5)CC[C@H]7N5CC[C@@H](C(=O)NS(=O)(=O)C6CC6)C5)c4Cl)cccc32)ccc1CN1CC[C@@H](O)C1 [Compound 093] | ≤ 10
COc1nc(O[C@H]2CCc3c(-c4cccc(-c5nc6cc7c(c(C#N)c6o5)CC[C@H]7N5CC[C@@H](C(=O)NS(=O)(=O)C6CC6)C5)c4C)cccc32)ccc1CN1CC[C@@H](O)C1 [Compound 094] | ≤ 10
COc1nc(O[C@H]2CCc3c(-c4cccc(-c5nc6cc7c(c(C#N)c6o5)CC[C@H]7N5CC[C@@H](C(=O)NS(=O)(=O)C6(C)CC6)C5)c4C)cccc32)ccc1CN1CC[C@@H](O)C1 [Compound 095] | ≤ 10
COc1nc(O[C@H]2CCc3c(-c4cccc(-c5nc6cc7c(c(C#N)c6o5)CC[C@H]7N5CC[C@@H](C(=O)NS(=O)(=O)C6(C)CC6)C5)c4Cl)cccc32)c(Cl)cc1CN1CC[C@@H](O)C1 [Compound 096] | ≤ 10
COc1nc(O[C@H]2CCc3c(-c4cccc(-c5nc6cc7c(c(C#N)c6o5)CC[C@H]7N5CC[C@@H](C(=O)NS(=O)(=O)C6(C)CC6)C5)c4Cl)cccc32)ccc1CN1CC[C@@H](O)C1 [Compound 097] | ≤ 10
COc1nc(O[C@H]2CCc3c(-c4cccc(-c5nc6cc7c(c(C#N)c6o5)CC[C@H]7N5CC[C@@H](C(=O)NS(=O)(=O)C6(C)CC6)C5)c4C)cccc32)c(Cl)cc1CN1CC[C@@H](O)C1 [Compound 098] | ≤ 10
